Test results taken from patent US20240130988A1, “Use of stilbene compounds in the preparation of anti-tumor drugs” (Guangzhou AnHao Pharmaceutical Technology CO., LTD., priority 2022, published 2024).

How the values were obtained:
[1] = test system: human liver cancer Bel7404; experiment: Compound 3 combined with lenvatinib, human liver cancer Bel7404 xenograft in nude mice; type: in vivo; conditions: po: lenvatinib 10 mg/kg, compound 3 400 mg/kg, combination 10 + 400
Excerpt: Experimental method: The model of human liver cancer Bel7404 transplant tumor in nude mice was established by subcutaneously inoculating human liver cancer Bel7404 cell lines into the armpits of nude mice. Cells were inoculated in an amount of 1×10^6, and after formation of the transplanted tumors by inoculation, the cells were passed 3 generations in nude mice before use. The vigorous growth of tumor tissue was cut into approximate 1.5 mm^3, and homogenized under sterile conditions, to prepare 1×10^7/mL of cell suspension. 0.1 mL of cell suspension was subcutaneously inoculated into the right armpit of nude mice. For transplanted tumors in nude mice, the diameter of the transplanted tumor was measured with vernier caliper. After the tumor grew to 100 mm^3, the animals were randomly divided into groups, with 6 animals in each group. Using the method of measuring tumor diameter, the anti-tumor effect of test compound was dynamically observed. Compound 3 was orally administered at 400 mg/kg, once a day, for three weeks; lenvartinib was also orally administered at 10 mg/kg, once a day, for two weeks. The measurement frequency of tumor diameter was once every three days. The animals in the negative control group were orally given an equal amount of physiological saline. The effect of combined medicaments was evaluated based on the Q value calculated by the Jin's formula: […]
Ea+b represents the tumor inhibitory rate of the combined medicaments, while Ea and Eb represent the tumor inhibitory rates of medicament A and medicament B, respectively. For example, the Q value of 0.85-1.15 means additive action (+), and the Q value of >1.15 means synergistic action (++).

[2] = test system: human lung cancer 95D and human liver cancer Bel7404; experiment: Tumor necrosis in vivo, HE staining; set-up: species or system nude mice; conditions: 400 mg/kg
Protocol: Well growing solid tumors (human lung cancer […]) and human liver cancer Bel7404) were cut into uniform small pieces of approximate 2-3 mm under sterile conditions, and subcutaneously inoculated into the right armpit of each nude mouse using a cannula. 14 days after inoculation, each mouse was treated with compound 6 by oral administration at a dosage of 400 mg/kg (in a dosage by volume of 0.5 mL/20 g body weight), and compound 6 was prepared as a suitable solution with sterile normal saline. At different time points (4 h, 24 h) after administration, the nude mice were killed, and the tumor tissue was dissected and fixed with 10% formalin. The pathological sections were made, followed by HE staining and taking photos, to observe the internal necrosis and cell proliferation within the tumors.

[3] = test system: human lung cancer 95D and human liver cancer Bel7404; experiment: In vivo vascular necrosis of tumors, PCNA immunohistochemistry; set-up: species or system nude mice; conditions: 400 mg/kg
[4] = test system: human gastric cancer SGC7901; experiment: Compound 6 combined with paclitaxel, human gastric cancer SGC7901 xenograft in nude mice; type: in vivo; conditions: paclitaxel 10 mg/kg iv, compound 6 200 mg/kg ip, combination 10 + 200
Excerpt: Experimental method: The model of human gastric cancer SGC7901 transplant tumor in nude mice was established by subcutaneously inoculating human gastric cancer SGC7901 cell lines into the armpits of nude mice. Cells were inoculated in an amount of 1×10^6, and after formation of the transplanted tumors by inoculation, the cells were passed 3 generations in nude mice before use. The vigorous growth of tumor tissue was cut into approximate 1.5 mm^3, and homogenized under sterile conditions, to prepare 1×10^7/mL of cell suspension. 0.1 mL of cell suspension was subcutaneously inoculated into the right armpit of nude mice. For transplanted tumors in nude mice, the diameter was measured with vernier caliper. After the tumor grew to 100 mm^3, the animals were randomly divided into groups, with 6 mice in each group. […] The measurement frequency of tumor diameter was once every three days. The dosage by volume was 0.1 mL/20 g. The mice in the negative control group were given an equal amount of physiological saline by intravenous injection. The effect of combined medicaments was evaluated based on the Q value calculated by Jin's formula: […]
(§1) Ea+b represents the tumor inhibitory rate of the combined medicaments, while Ea and Eb represent the tumor inhibitory rates of medicament A and medicament B, respectively.

[5] = test system: human liver cancer QGY7703; experiment: Compound 6 combined with T cells, human liver cancer QGY7703 model in NOG mice; type: in vivo; conditions: 8 × 10^6 T cells sc, compound 6 200 mg/kg ip, or both
Protocol: Experimental method: QGY7703 tumor cells were washed twice with PBS, and then resuspended with PBS:Matrix (1:1 mixture by volume). The cell concentration was adjusted to 2.5×10^6/mL, and subcutaneously inoculated to the right armpit of experimental animals at 200 μL/mouse, i.e. 5×10^5 cells/mouse. When the tumor grew to about 50 mm^3, the mice were divided into groups for administration.
T cell culture and harvest: PBMCs of donors were activated and expanded in vitro according to the standard operating procedures for T cell culture. The cells in logarithmic growth phase were harvested and suspended in the medium at a moderate dose (2×10^7/mL) for future use.
T cells were administrated by subcutaneous injection, and the injection site was the same as the inoculation site of tumor cells.
The general conditions, body weight, tumor volume, and tumor weight of mice were recorded every 3 days. Based on the status of the tumor, whether EAL was further injected was decided.
The effect of combined medicaments was evaluated based on the Q value calculated by Jin's formula: […]
as §1

human lung cancer A549 = experiment: Compound 8 combined with carboplatin, human lung cancer A549 xenograft in nude mice; type: in vivo; conditions: ip: carboplatin 10 mg/kg, compound 8 200 mg/kg, combination 10 + 200
Excerpt: Experimental method: The model of human lung cancer A549 transplant tumor in nude mice was established by subcutaneously inoculating human lung cancer A549 cell lines into the armpits of nude mice. Cells were inoculated in an amount of 1×10^6, and after formation of the transplanted tumors by inoculation, the cells were passed 3 generations in nude mice before use. The vigorous growth of tumor tissue was cut into approximate 1.5 mm^3, and homogenized under sterile conditions, to prepare 1×10^7/mL of cell suspension. 0.1 mL of cell suspension was subcutaneously inoculated into the right armpit of nude mice. For transplanted tumors in nude mice, the diameter was measured with vernier caliper. After the tumor grew to 100 mm^3, the animals were randomly divided into groups, with 6 mice in each group. Using the method of measuring tumor diameter, the anti-tumor effect of test compound was dynamically Observed. Compound 8 was administered at 200 mg/kg by intraperitoneal injection, once every other day, for three weeks; carboplatin was administered at 10 mg/kg by intraperitoneal injection, once every other day, for three weeks. The measurement frequency of tumor diameter was once every three days. The dosage by volume was 0.1 mL/20 g. The mice in the negative control group were given an equal amount of physiological saline by intravenous injection. The effect of combined medicaments was evaluated based on the Q value calculated by Jin's formula: […]
Ea+b represents the tumor inhibitory rate of the combined medicaments, while Ea and Eb represent the tumor inhibitory rates of medicament A and medicament B, respectively. For example, the Q value of 0.85-1.15 means additive action (+), while the Q value of >1.15 means synergistic action (++).

For `COc1cc(/C=C(/C(=O)O)c2cc(OC)c(OC)c(OC)c2)cc(OC)c1` [Compound 3, (E)-3-(3,5-dimethoxyphenyl)-2-(3,4,5-trimethoxyphenyl)acrylic acid], the “RTV (d 21)” value [1] was 3.54 ± 1.87, the “Terminal weight” value [1] was 22.4 ± 0.6 g and the “Tumor inhibitory rate %” value [1] was 68.47%.

With `COc1ccc(/C=C(/C(=O)O)c2cc(OC)c(OC)c(OC)c2)cc1O` [Compound 6, (E)-3-(3-hydroxy-4-methoxyphenyl)-2-(3,4,5-trimethoxyphenyl)acrylic acid] the “Internal necrosis within the tumors (HE staining)” value ([2]; 4 h after oral administration) was “necrosis began to appear within the tumor tissues”, the “Internal necrosis within the tumors (HE staining)” value ([2]; 24 h after oral administration) was “massive necrosis” and the “Damage to the blood vessels of tumors (PCNA immunohistochemistry)” value ([3]; 4 h after oral administration) was “only some vascular endothelial cells proliferated in the tumor tissues”. The “Damage to the blood vessels of tumors (PCNA immunohistochemistry)” value ([3]; 24 h after oral administration) was “massive blood flow blockade and necrosis of tumor tissues”, the “RTV (d 21)” value [4] was 6.21 ± 1.88 and the “Terminal weight” value [4] was 22.9 ± 1.2 g. For the same compound, the “Tumor inhibitory rate %” value [4] was 54.07%, the “RTV(d 32)” value [5] was 19.62 ± 3.17 and the “Terminal weight” value [5] was 24.5 ± 0.9 g. For the same compound, the “Tumor inhibitory rate %” value [5] was 39.61%.

For `COc1cc(/C(=C\c2cc(O)c(OC)c(F)c2)C(=O)O)cc(OC)c1OC` [Compound 8, (E)-3-(5-fluoro-3-hydroxy-4-methoxyphenyl)-2-(3,4,5-trimethoxyphenyl)acrylic acid], the “RTV (d 21)” value (human lung cancer A549) was 4.85 ± 1.37 and the “Tumor inhibitory rate %” value (human lung cancer A549) was 62.32%.
